In publication PMC8151276, “An Integrated Approach toward NanoBRET Tracers for Analysis of GPCR Ligand Engagement” (Molecules, 2021):

How the values were obtained:
Format in all cases: binding
AVPR2 = target: T1, AVPR2 (Homo sapiens, UniProt P30518); test: NanoBRET screen HiBiT-AVPR2 in HEK293
T1 construct: purchased Promega (in-house HiBiT-GPCR construct library, NanoBRET)
Procedure: (§1) Each tracer candidate was screened across the entire library of HiBiT-GPCR constructs using NanoBRET as the detection modality. As depicted in Figure 4A, the specificity of interactions was evaluated through decrease in BRET due to competitive displacement of a bound tracer by excess parental compound. Each tracer was analyzed for binding to each HiBiT-GPCR fusion in the absence and in the presence of competing parental compound. Briefly, HEK293 cells were transfected with HiBiT-GPCR constructs diluted into promoterless DNA to reduce expression and maximize translocation to the cell surface. Each tracer candidate was then screened at concentrations of 1 μM and 0.1 μM across cells expressing these fusions. Cells were treated for 1.5 h with tracer either alone or in the presence of 20 μM competing parental compound (i.e., control). BRET was measured upon addition of purified LgBiT and subsequent complementation with HiBiT genetically fused to a GPCR. The specificity of interactions was assessed through a decrease in BRET signal due to competitive displacement of the bound tracer. To further gauge the robustness of these interactions, the fold response over the control (i.e., BRETtracer/BRETcontrol) was calculated. We chose a 1.5-fold response, which translates to ≥7-fold signal over noise as the minimal threshold required to score an interaction as positive. […]. Below we highlight the screening results obtained for our exemplary fluorescent tracers based on Clozapine, Amitriptyline and AZD1283.
(§2) HiBiT-GPCR DNA constructs were diluted in 10 mM Tris pH 8 to a final concentration of 0.01 μg/μL, arrayed in 96-well plates and stored at −20 °C. For transfection, HEK293 cells were suspended in Opti-MEM (without phenol red) supplemented with 2% fetal bovine serum (Seradigm) and 100 units/mL penicillin–streptomycin (Gibco) at a final concentration of 220,000 cells/mL and dispensed into white 96-well plates at 90 μL/well. Subsequent transfections and screens were carried using an Agilent Bravo Automated Liquid Handling Platform. First, the 96-well HiBiT DNA arrays were diluted 25-fold in Opti-MEM (without serum or phenol red) to a final concentration of 0.0004 μg/μL and 20 μL of the diluted DNAs were transferred into new 96-well plates. Next, promoterless carrier DNA (1 μg/μL) was diluted 25-fold (0.04 μg/μL) and then dispensed into the diluted arrays at 20 μL/well. Following brief mixing, Viafect transfection reagent (Promega) diluted 16-fold into Opti-MEM was dispensed into the plates at 40 μL/well. After mixing by pipetting, plates were incubated for 10 min on the pipetting station deck. The DNA-transfection reagent complexes were then added to plates containing cells. To facilitate the screen, 10 μL of DNA-transfection reagent complexes were added in duplicates to the top 4 and bottom 4 rows, resulting in two identical 48-well arrays per plate. Plates with transfected cells were incubated for 18–20 h at 37 °C/5% CO2. A screen of each tracer across the entire library using two different concentrations requires duplicate plates of transfected cells. Depending on the number of tracers being screened, transfections can be scaled up using the same ratios. The next day, for each tracer, four 20× screening solutions in tracer dilution buffer (Promega) were prepared: two duplicates at final concentration of 20 μM and two duplicates at a final concentration of 2 μM. A competing unmodified compound was added to one of each duplicate at a final concentration of 400 μM. The four resulting solutions were diluted 4-fold in Opti-MEM without serum or phenol red to generate 5× solutions (5 µM and 0.5 µM tracer +/− 100 μM competing compound). To screen the library, a BioTek MultiFlo FX liquid dispenser was used to dispense 22.5 µL of tracer solution to the top 4 rows and 22.5 µL tracer + competing compound solution to the 4 bottom rows. Plates were briefly mixed on an orbital shaker and incubated for 1.5 h at room temperature. […]

GABBR1 = target: T2, GABBR1 (Homo sapiens, UniProt Q9UBS5); test: NanoBRET screen HiBiT-GABBR1 in HEK293
T2 construct: purchased Promega (in-house HiBiT-GPCR construct library, NanoBRET)
Procedure: as §1, §2

HTR4 = target: T3, HTR4 (Homo sapiens, UniProt Q13639); test: NanoBRET screen HiBiT-HTR4 in HEK293
T3 construct: purchased Promega (in-house HiBiT-GPCR construct library, NanoBRET)
Procedure: as §1, §2

GNRHR = target: T4, GNRHR (Homo sapiens, UniProt P30968); test: NanoBRET screen HiBiT-GNRHR in HEK293
T4 construct: purchased Promega (in-house HiBiT-GPCR construct library, NanoBRET)
T4 sequence (P30968 1-328): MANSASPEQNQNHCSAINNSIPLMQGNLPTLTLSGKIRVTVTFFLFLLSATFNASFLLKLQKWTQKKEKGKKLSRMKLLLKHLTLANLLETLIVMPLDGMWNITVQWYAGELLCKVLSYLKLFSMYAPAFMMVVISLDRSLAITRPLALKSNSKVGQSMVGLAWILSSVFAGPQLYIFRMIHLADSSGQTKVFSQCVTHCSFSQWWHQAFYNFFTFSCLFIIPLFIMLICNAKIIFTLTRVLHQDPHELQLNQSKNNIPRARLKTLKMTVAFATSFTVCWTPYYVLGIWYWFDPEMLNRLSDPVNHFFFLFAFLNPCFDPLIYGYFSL
Procedure: as §1, §2

NMUR1 = target: T5, NMUR1 (Homo sapiens, UniProt Q9HB89); test: NanoBRET screen HiBiT-NMUR1 in HEK293
T5 construct: purchased Promega (in-house HiBiT-GPCR construct library, NanoBRET)
T5 sequence (Q9HB89 1-426): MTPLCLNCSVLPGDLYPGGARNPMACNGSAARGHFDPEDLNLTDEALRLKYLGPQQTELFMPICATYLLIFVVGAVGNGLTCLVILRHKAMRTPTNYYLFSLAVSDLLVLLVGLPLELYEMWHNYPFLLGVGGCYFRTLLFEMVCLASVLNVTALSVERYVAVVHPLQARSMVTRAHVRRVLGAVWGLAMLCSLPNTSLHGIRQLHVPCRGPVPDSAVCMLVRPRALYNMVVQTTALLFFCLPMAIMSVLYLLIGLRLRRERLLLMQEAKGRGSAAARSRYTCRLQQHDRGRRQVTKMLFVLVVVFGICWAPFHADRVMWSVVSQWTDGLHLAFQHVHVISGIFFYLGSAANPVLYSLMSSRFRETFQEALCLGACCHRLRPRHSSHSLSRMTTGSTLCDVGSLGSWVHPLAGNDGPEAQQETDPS
Procedure: as §1, §2

[1] = tracer at 0.1μM, listed as amitriptyline-b-2-NB590
[2] = tracer at 1μM, listed as amitriptyline-b-2-NB590

T3 sequence (Q13639 whole entry): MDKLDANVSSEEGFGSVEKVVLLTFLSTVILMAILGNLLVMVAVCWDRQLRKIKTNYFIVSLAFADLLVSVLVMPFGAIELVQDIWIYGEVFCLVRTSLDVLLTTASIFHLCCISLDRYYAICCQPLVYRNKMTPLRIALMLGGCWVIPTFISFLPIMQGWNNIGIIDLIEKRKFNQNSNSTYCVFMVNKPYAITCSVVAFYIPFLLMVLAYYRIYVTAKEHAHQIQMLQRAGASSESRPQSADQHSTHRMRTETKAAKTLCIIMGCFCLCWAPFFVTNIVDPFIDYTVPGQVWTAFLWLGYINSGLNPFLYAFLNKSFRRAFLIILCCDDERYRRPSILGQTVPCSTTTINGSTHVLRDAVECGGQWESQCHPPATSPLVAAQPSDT
T2 sequence (Q9UBS5 15-961 limits assumed): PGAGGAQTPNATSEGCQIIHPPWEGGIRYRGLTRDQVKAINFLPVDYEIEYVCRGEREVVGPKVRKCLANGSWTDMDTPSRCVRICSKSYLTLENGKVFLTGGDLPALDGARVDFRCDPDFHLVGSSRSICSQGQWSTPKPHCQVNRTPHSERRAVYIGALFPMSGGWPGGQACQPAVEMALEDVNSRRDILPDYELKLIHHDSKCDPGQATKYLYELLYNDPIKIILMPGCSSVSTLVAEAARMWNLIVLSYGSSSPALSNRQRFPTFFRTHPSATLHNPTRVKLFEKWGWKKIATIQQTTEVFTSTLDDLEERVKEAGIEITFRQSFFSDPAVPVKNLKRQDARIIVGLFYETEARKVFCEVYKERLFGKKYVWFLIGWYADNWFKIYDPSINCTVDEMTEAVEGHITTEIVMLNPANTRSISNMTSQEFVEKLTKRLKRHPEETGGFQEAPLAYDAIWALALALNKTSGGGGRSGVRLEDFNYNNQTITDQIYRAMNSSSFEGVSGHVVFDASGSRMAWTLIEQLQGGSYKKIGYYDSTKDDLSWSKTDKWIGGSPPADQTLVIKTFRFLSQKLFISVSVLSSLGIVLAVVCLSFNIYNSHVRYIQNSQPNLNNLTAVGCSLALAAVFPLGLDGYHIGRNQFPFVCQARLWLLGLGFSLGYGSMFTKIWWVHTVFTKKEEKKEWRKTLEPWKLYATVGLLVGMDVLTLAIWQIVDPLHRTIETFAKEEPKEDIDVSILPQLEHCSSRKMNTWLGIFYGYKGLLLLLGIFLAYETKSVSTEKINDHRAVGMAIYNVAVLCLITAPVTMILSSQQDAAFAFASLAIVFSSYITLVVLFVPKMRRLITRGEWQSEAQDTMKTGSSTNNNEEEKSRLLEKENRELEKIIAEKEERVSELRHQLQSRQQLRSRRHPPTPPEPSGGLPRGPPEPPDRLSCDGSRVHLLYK
T1 sequence (P30518 whole entry): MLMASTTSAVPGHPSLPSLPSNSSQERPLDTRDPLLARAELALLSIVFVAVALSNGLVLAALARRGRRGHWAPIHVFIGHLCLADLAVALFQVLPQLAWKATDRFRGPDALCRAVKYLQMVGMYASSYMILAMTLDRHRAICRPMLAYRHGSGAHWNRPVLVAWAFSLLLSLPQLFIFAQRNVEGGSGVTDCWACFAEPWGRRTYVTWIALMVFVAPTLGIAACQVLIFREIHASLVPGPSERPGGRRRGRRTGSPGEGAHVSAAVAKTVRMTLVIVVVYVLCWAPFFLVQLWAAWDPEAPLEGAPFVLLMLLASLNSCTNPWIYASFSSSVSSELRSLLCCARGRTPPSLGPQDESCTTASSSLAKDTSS

Compound	NanoBRET Fold Response (AVPR2; AVPR2, tracer 0.1μM)	NanoBRET Fold Response (AVPR2; AVPR2, tracer 1μM)	NanoBRET Fold Response (GABBR1; GABBR1, tracer 0.1μM)	NanoBRET Fold Response (GABBR1; GABBR1, tracer 1μM)	NanoBRET Fold Response (HTR4; HTR4, tracer 0.1μM)	NanoBRET Fold Response (HTR4; HTR4, tracer 1μM)	NanoBRET Fold Response (GNRHR; GNRHR, tracer 0.1μM)	NanoBRET Fold Response (GNRHR; GNRHR, tracer 1μM)	NanoBRET Fold Response (NMUR1; NMUR1, tracer 0.1μM)	NanoBRET Fold Response (NMUR1; NMUR1, tracer 1μM)	further results
Cc1nc2n(c(=O)c1CCN1CCC(c3noc4cc(F)ccc34)CC1)CCCC2OC(=O)NCCOCCOCCOCCOCCNC(=O)CCc1ccc2n1[B-](F)(F)[N+]1=C(c3ccc[nH]3)C=CC1=C2 (stereo not drawn) [Risperidone-2-NB590]	1.04	1.01	1.09	0.87	1.08	1.51	0.88	0.97	1.04	0.97	–
CCOC(=O)c1cc(C#N)c(N2CCC(C(=O)NS(=O)(=O)Cc3ccccc3/C=C/C(=O)NCCNC(=O)CCc3ccc4n3[B-](F)(F)[N+]3=C(c5ccc[nH]5)C=CC3=C4)CC2)nc1C [AZD1283-1-NB590]	–	–	–	–	–	–	–	–	–	–	NanoBRET Fold Response (AVPR2; AVPR2, 0.1μM): 1.03; NanoBRET Fold Response (AVPR2; AVPR2, 1μM): 1.05; NanoBRET Fold Response (GABBR1; GABBR1, 0.1μM): 1.05; NanoBRET Fold Response (GABBR1; GABBR1, 1μM): 1.13; NanoBRET Fold Response (HTR4; HTR4, 0.1μM): 1.01; NanoBRET Fold Response (HTR4; HTR4, 1μM): 1.00; NanoBRET Fold Response (GNRHR; GNRHR, 0.1μM): 1.09; NanoBRET Fold Response (GNRHR; GNRHR, 1μM): 1.08; NanoBRET Fold Response (NMUR1; NMUR1, 0.1μM): 1.05; NanoBRET Fold Response (NMUR1; NMUR1, 1μM): 1.04
Cc1cc2c(s1)Nc1ccccc1N=C2N1CCN(CCCNC(=O)CCOCCOCCOCCOCCNC(=O)CCc2ccc3n2[B-](F)(F)[N+]2=C(c4ccc[nH]4)C=CC2=C3)CC1 [Olanzapine-a-2-NB590]	0.98	0.92	0.94	1.20	1.02	1.02	1.02	1.04	0.98	1.00	–
COc1ccccc1N1CCN(CCCCN2C(=O)c3ccc(CNC(=O)CCOCCNC(=O)c4ccc(CNC(=O)CCc5ccc6n5[B-](F)(F)[N+]5=C(c7ccc[nH]7)C=CC5=C6)cc4)cc3C2=O)CC1 [NAN-190-3-NB590]	1.08	1.11	0.80	1.07	1.00	1.03	1.14	0.97	1.03	0.96	–
CC(C)N(CC[C@H](c1ccccc1)c1cc(CCNC(=O)CCOCCOCCOCCOCCNC(=O)CCc2ccc3n2[B-](F)(F)[N+]2=C(c4ccc[nH]4)C=CC2=C3)ccc1O)C(C)C [Tolterodine-2-NB590]	1.06	1.06	1.32	1.14	0.92	1.00	1.23	1.15	0.94	1.12	–
CN(C)CCC=C1c2ccccc2CCc2ccc(C(=O)NCCNC(=O)CCOCCOCCOCCOCCNC(=O)CCc3ccc4n3[B-](F)(F)[N+]3=C(c5ccc[nH]5)C=CC3=C4)cc21 [Amitriptyline-b-2-NB590]	–	–	–	–	–	–	–	–	–	–	NanoBRET Fold Response (AVPR2; [1]): 1.13; NanoBRET Fold Response (AVPR2; [2]): 0.89; NanoBRET Fold Response (GABBR1; [1]): 1.11; NanoBRET Fold Response (GABBR1; [2]): 0.85; NanoBRET Fold Response (HTR4; tracer at 0.1μM): 1.03; NanoBRET Fold Response (HTR4; tracer at 1μM): 1.09; NanoBRET Fold Response (GNRHR; [1]): 1.21; NanoBRET Fold Response (GNRHR; [2]): 0.91; NanoBRET Fold Response (NMUR1; [1]): 1.14; NanoBRET Fold Response (NMUR1; [2]): 1.10
O=C(CCOCCOCCOCCOCCNC(=O)CCc1ccc2n1[B-](F)(F)[N+]1=C(c3ccc[nH]3)C=CC1=C2)NCCCN1CCN(C2=Nc3ccccc3Oc3ccc(Cl)cc32)CC1 [Loxapine-a-2-NB590]	1.04	1.05	1.03	0.92	1.02	1.04	1.03	0.89	1.02	1.21	–
CN(C)CCC=C1c2ccccc2CCc2ccc(C(=O)NCCNC(=O)CCOCCOCCOCCOCCNC(=O)CCc3ccc4n3[B-](F)(F)[N+]3=C(c5ccc[nH]5)C=CC3=C4)cc21 [Amitriptyline-a-2-NB590]	–	–	–	–	–	–	–	–	–	–	NanoBRET Fold Response (AVPR2; tracer at 0.1μM): 0.95; NanoBRET Fold Response (AVPR2; tracer at 1μM): 1.05; NanoBRET Fold Response (GABBR1; tracer at 0.1μM): 0.93; NanoBRET Fold Response (GABBR1; tracer at 1μM): 0.91; NanoBRET Fold Response (GNRHR; tracer at 0.1μM): 0.97; NanoBRET Fold Response (GNRHR; tracer at 1μM): 1.06; NanoBRET Fold Response (NMUR1; tracer at 0.1μM): 1.01; NanoBRET Fold Response (NMUR1; tracer at 1μM): 0.99
COc1ccccc1N1CCN(CCCCN2C(=O)c3ccc(CNC(=O)CCOCCOCCOCCOCCNC(=O)CCc4ccc5n4[B-](F)(F)[N+]4=C(c6ccc[nH]6)C=CC4=C5)cc3C2=O)CC1 [NAN-190-2-NB590]	1.00	0.98	0.88	0.93	–	–	0.98	0.95	0.99	0.98	–
N#CN/C(=N\CCNC(=O)c1ccc(N)cc1)NCCCOc1cccc(CN2CCCCC2)c1 [Aminopotentidine (unmodified)]	–	–	–	–	–	–	–	–	–	–	NanoBRET Fold Response (HTR4; HTR4, other tracers/Aminopotentidine (unmodified), 0.1μM): 1.01; NanoBRET Fold Response (HTR4; HTR4, other tracers/Aminopotentidine (unmodified), 1μM): 1.19
CN(CCC=C1c2ccccc2CCc2ccccc21)C(=O)CCOCCOCCOCCOCCNC(=O)CCc1ccc2n1[B-](F)(F)[N+]1=C(c3ccc[nH]3)C=CC1=C2 [Amitriptyline-e-2-NB590]	–	–	–	–	–	–	–	–	–	–	NanoBRET Fold Response (AVPR2; tracer at 1μM): 0.99; NanoBRET Fold Response (GABBR1; tracer at 1μM): 1.09
